“And” between values parts separate entries of the source, which are not always exact repeats. Identical values can stand only once.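 All cell lines were grown in 96-well plates and treated with compound for 48 hours. GI50 marks 50% less growth. Definition used: TGI = concentration required for complete inhibition of growth.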
Legend:
Test in all cases: DTP human tumour cell line panel, 48 h
MDA-MB-435 = system: MDA-MB-435
OVCAR-4 ovarian = system: OVCAR-4 ovarian
TK-10 renal = system: TK-10 renal
HL-60(TB) leukemia = system: HL-60(TB) leukemia
LOX IMVI melanoma = system: LOX IMVI melanoma
SF-268 CNS = system: SF-268 CNS
SN12C renal = system: SN12C renal
OVCAR-3 ovarian = system: OVCAR-3 ovarian
MALME-3M melanoma = system: MALME-3M melanoma
UACC-257 melanoma = system: UACC-257 melanoma

Row | Structure (SMILES) | GI50 (MDA-MB-435) | TGI (MDA-MB-435) | GI50 (OVCAR-4 ovarian) | TGI (OVCAR-4 ovarian) | GI50 (TK-10 renal) | TGI (TK-10 renal) | GI50 (HL-60(TB) leukemia) | TGI (HL-60(TB) leukemia) | GI50 (LOX IMVI melanoma) | TGI (LOX IMVI melanoma) | GI50 (SF-268 CNS) | TGI (SF-268 CNS) | GI50 (SN12C renal) | TGI (SN12C renal) | GI50 (OVCAR-3 ovarian) | TGI (OVCAR-3 ovarian) | GI50 (MALME-3M melanoma) | TGI (MALME-3M melanoma) | GI50 (UACC-257 melanoma) | TGI (UACC-257 melanoma)
1 | CC(=O)N[C@@H](Cc1ccc(OP(=O)(O)O)cc1)C(=O)N[C@H]1CCC(=O)N2CCC[C@@H](C(=O)NCc3ccc(Cl)cc3)N2C1=O | > 25 µM | > 25 µM | > 25 µM | > 25 µM | > 25 µM | > 25 µM | > 25 µM | > 25 µM | > 25 µM | > 25 µM | > 25 µM | > 25 µM | > 25 µM | > 25 µM | > 25 µM | > 25 µM | > 25 µM | > 25 µM | > 25 µM | > 25 µM
2 | CCN1CCN(Cc2ccc(-c3cc4c(N[C@H](C)c5ccccc5)ncnc4[nH]3)cc2)CC1 | 1.95 µM and 2.74 µM | 4.63 µM and 8.4 µM | 4.71 µM and > 10 µM | 23 µM and > 10 µM | 0.111 µM and 0.183 µM | 4.43 µM and > 10 µM | 2.83 µM and 4 µM | 7.91 µM and > 10 µM | 1.51 µM and 1.24 µM | 3.06 µM and 2.78 µM | 2.43 µM and 4.11 µM | 18.7 µM and > 10 µM | 0.278 µM and 2.12 µM | 15.5 µM and > 10 µM | 3.78 µM and 2.05 µM | 20.9 µM and > 10 µM | 1.92 µM and 1.78 µM | 4.14 µM and 4.02 µM | 1.76 µM and 1.83 µM | 3.38 µM and 3.41 µM
3 | CCCCON(OC(=O)c1ccccc1)C(=O)c1ccccc1 | > 100 µM | > 100 µM | > 100 µM | > 100 µM | > 100 µM | > 100 µM | 88.7 µM | > 100 µM | > 100 µM | > 100 µM | > 100 µM | > 100 µM | > 100 µM | > 100 µM | > 100 µM | > 100 µM | > 100 µM | > 100 µM | > 100 µM | > 100 µM
4 | Clc1ccc(CSC(Cn2ccnc2)c2ccc(Cl)cc2Cl)cc1 (stereo not drawn) | 1.71 µM | 3.33 µM | 1.37 µM | 3.16 µM | 1.53 µM | 2.89 µM | 2.15 µM | 4.54 µM | 1.59 µM | 2.93 µM | 1.66 µM | 3.83 µM | 1.53 µM | 2.87 µM | 1.54 µM | 2.87 µM | 1.64 µM | 3.15 µM | 1.43 µM | 2.86 µM
5 | CC12CCC3C(CCC4Cc5[nH]c6ccccc6c5CC43C)C1CCC2O (stereo not drawn) | 0.241 µM | 0.717 µM | 1.35 µM | > 100 µM | 2.73 µM | > 100 µM | 0.381 µM | 2.33 µM | 1.01 µM | 7.13 µM | 2.55 µM | > 100 µM | 4.09 µM | > 100 µM | 0.26 µM | 0.719 µM | 2.92 µM | > 100 µM | > 100 µM | > 100 µM
6 | COc1ccc2[nH]c(=O)c3c4ccccc4cn3c2c1 | 0.154 µM | 0.411 µM | 0.532 µM | 2.78 µM | 1.28 µM | 5.02 µM | 0.186 µM | 0.548 µM | 0.776 µM | 2.11 µM | 0.516 µM | 3.19 µM | 0.6 µM | 7.17 µM | 0.253 µM | 0.608 µM | 0.911 µM | 2.48 µM | 2.67 µM | 11.1 µM
7 | CC(C)[C@]12O[C@H]1[C@@H]1O[C@]13[C@]1(O[C@H]1C[C@H]1C4=C(CC[C@@]13C)C(=O)OC4)[C@@H]2O | 0.0122 µM | 0.0214 µM and 0.0296 µM | 0.0174 µM |  | 0.0278 µM | > 100 µM | < 0.0111 µM | 0.0495 µM | < 0.01 µM | 0.0251 µM |  | 0.241 µM and 0.218 µM |  |  | 0.0198 µM | 0.0932 µM and 0.377 µM | 0.018 µM | 0.0328 µM and 0.0467 µM | 0.0101 µM and 0.0148 µM | 0.0341 µM and 0.0476 µM
8 | COC(=O)CCC(=O)C(=O)OC | 62100 µM |  | 65000 µM |  |  |  | 23600 µM | 61600 µM | 13300 µM |  | 26400 µM |  | 21500 µM | 62100 µM | 28600 µM |  | 37900 µM |  | 30800 µM | 
9 | O=[N+]([O-])c1ccc(S(=O)(=O)Cc2ccccc2)c([N+](=O)[O-])c1 |  | 3.34 µM |  | 5.77 µM |  | 3.28 µM |  | 4.03 µM |  | 3.39 µM |  | 14.5 µM |  |  |  | 2.57 µM |  | 6.2 µM |  | 3.05 µM
10 | CN(Cc1cnc2nc(N)nc(N)c2n1)c1ccc(C(=O)NC(CCC(=O)O)C(=O)O)cc1C(F)(F)F (stereo not drawn) |  | > 100 µM |  | > 100 µM |  | > 100 µM |  | > 100 µM |  | > 100 µM |  | > 100 µM |  |  |  | > 100 µM |  | > 100 µM |  | > 100 µM
11 | C=C1C(=O)O[C@H]2[C@H]1CC/C(CNC(=O)Cc1c[nH]c3ccccc13)=C\CC[C@@]1(C)O[C@@H]21 | 0.862 µM | 13.4 µM | 1.74 µM | 15.7 µM | 0.747 µM | 2.01 µM | 0.314 µM | 1.02 µM | 0.355 µM | 1.54 µM | 2.62 µM | 16.3 µM | 1.91 µM | 18.3 µM | 0.386 µM | 1.44 µM | 3.42 µM | 7.39 µM |  | 

Reference: PubChem BioAssay (NCI)
